Measured values taken from patent publication US7659277B2, “Ubiquitin ligase inhibitors and methods related thereto” (Proteologies, Ltd., priority 2003, dated 2010).
pIC50: −log10 of the molar value. Like-named read-outs stand apart in the source and are kept apart here.

How the values were obtained:
[1] = biological target: T1, POSH (Homo sapiens, UniProt Q7Z6J0); assay: IC50 assay procedure: GST-POSH auto-ubiquitination, homogeneous time-resolved fluorescence (Ub-cryptate / anti-GST XL665); assay type: biochemical; conditions: ubiquitin ligase activity of POSH; GST-POSH 33 nM, 30 min preincubation
T1 construct: GST-POSH lot NB81/p.118 3.6 mg/ml; fused on or other part: GST tag, used for detection with anti-GST XL665
T1 sequence (Q7Z6J0 1-269 limits assumed): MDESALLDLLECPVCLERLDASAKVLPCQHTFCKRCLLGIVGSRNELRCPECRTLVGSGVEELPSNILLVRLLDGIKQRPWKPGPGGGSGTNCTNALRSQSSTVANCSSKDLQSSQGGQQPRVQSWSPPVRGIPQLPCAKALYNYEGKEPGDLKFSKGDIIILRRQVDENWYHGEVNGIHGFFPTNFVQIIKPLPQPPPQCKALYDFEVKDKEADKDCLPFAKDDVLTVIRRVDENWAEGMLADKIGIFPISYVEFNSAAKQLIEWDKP
Text: In certain preferred embodiments, agents that inhibit (or promote) the ubiquitin ligase activity of a ubiquitin ligase, such as POSH, may be identified using a homogenous time resolved fluorescence assay. Such an assay may employ a GST fused to the RING subunit of a ubiquitin ligase (e.g. POSH). Two flurophore-conjugated detection reagents are also used: anti-GSTXL665 and europium cryptate labeled ubiqutin. The ubiqutination of the ubiquitin ligase by ubiqutin cryptate and binding of the anti-GST tagged XL665 brings the fluorophores into close proximity allowing FRET reaction to occur. Accordingly, FRET serves as a measurement of ubiquitination of the ubiquitin ligase. An enzymatic system may be set up to provide activated ubiquitin, e.g., by providing ubiquitin, an E1 and an E2. Compounds that will not allow the FRET reaction are considered to be inhibitors.
Step 3: establish IC 50 value measurements.
Experimental Protocols: 1. HTS Screening Assay Procedure • Microplates 10109D to 10114D compounds at 1 mM. • (Controls in column 1). • All compounds were perchase from ChemBridge corporation: ChemBridge corporation 16981 Via Tazon, Suite G San Diego, Calif. 92127 a. Microplates Labeling • Put labels to 6 PS U-bottom clear microplate. • Put labels to 18 black microplates (triplicats). b. Microplates Preparation • Put 100 μl GST-POSH at 33 nM in wells of the clear PS U-bottom microplates (exept wells A1-D1). • Negative control: place 100 μl dH2O in wells A1-D1. • (Positive control: place 100 μl GST-POSH at 33 nM in wells E1-H1). • Put 8 μl enzymes solution ×4 to black microplates (column 1 to 11). c. Incubation of E3 with Compounds • Transfer 5 μl of compounds (at 1 mM) to the microplates containing 100 μl GST-POSH. • Add 5 μl of DMSO to controls column 1. • Incubation 30 minutes at RT. d. Enzymatic (Ubiquitination) and Final Steps • Distribution of (triplicate) 3×23 μl incubated compounds into 3 black microplates containing enzymatic solution (on splitting apparatus). • Incubation 30 minutes at 37° C. • Addition of 8 μl EDTA 0.5 M. • Incubation 15 (at least) minutes at RT. • Addition of 30 μl GST XL 665 in reconstitution buffer. • Incubation 45 (at least) minutes at RT. • Reading fluorescence. • Record results in computer. • Put sealing foil back on original and diluted microplates and keep at −70° C. • Always the plates must be closed with lids during each step. 2. […] Microplates Labeling • Put labels to 4 clear PP clear microplate (18.2 μM, 9.1 uM, 1.82 uM, 910 nM,). • Put labels to 5 clear PS U-bottom clear microplate 4.44 μM, 909, 444, 91 and 44 nM) • Put labels to 15 black microplates (triplicates). f. Original Microplate Dilutions • Put DMSO 40 μl to (18.2 μM, 1.82 uM plates) and 20 ul to (9.1 uM, 910 nM plates. • Mix by pipetation the original microplate (3× up and down 45 μl). • Transfer 10 μl of compounds from the original microplate (at 91 μM) to the next microplate (=18.2 μM) on splitting apparatus. • Mix by pipetation the 18.2 uM microplate (3× up and down 45 μl). • Transfer 20 μl of compounds from the 18.2 uM microplate to the next microplate (=9.1 μM) on splitting apparatus. • Mix by pipetation the 9.1 uM microplate (3× up and down 45 μl). • Transfer 10 μl of compounds from the 9.1 uM microplate to the next microplate (=1.82 μM) on splitting apparatus. • Mix by pipetation the 1.82 uM microplate (3× up and down 45 μl). • Transfer 20 μl of compounds from the 1.82 uM microplate to the next microplate (=910 nM) on splitting apparatus • Mix by pipetation. g. Microplates Preparation • Put 123 μl GST-POSH at 33 nM in wells of the 5 clear PS U-bottom clear microplates. • Positive control: place 123 μl GST-POSH at 33 nM in well A12-h12 13 μl DMSO. • Negative control: place 123 μl dH2O in well B1 and 13 μl DMSO. • Put 8 μl enzymes solution ×4 to 15 black microplates. • Controls: put 8 μl enzymes solution ×4 to wells A1 to F1. h. […]

[2] = biological target: Hmdm2 (Homo sapiens, UniProt Q00987); assay: Selectivity (% A in 1 μM), ubiquitin ligase activity of Hmdm2; assay type: biochemical; conditions: read-out: Selectivity (% A* in 1 μM) Hmdm2
[3] = % activity at 1 μM compound, control is related to 100% activity, HTS protocol

Hmdm2, sequence (Q00987 whole entry): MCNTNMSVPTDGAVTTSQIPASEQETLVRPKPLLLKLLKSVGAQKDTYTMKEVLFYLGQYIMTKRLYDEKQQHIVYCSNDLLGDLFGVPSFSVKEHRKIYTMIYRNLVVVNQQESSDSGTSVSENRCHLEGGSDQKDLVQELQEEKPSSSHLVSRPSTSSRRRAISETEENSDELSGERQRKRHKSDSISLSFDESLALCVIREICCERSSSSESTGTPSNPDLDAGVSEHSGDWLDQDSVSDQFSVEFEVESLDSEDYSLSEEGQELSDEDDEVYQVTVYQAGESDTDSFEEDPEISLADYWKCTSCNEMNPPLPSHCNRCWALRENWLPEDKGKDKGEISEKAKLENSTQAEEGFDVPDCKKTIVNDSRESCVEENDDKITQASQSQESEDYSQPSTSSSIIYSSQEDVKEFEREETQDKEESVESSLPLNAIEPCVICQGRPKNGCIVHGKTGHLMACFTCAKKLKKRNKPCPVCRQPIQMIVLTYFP

Row | SMILES | pIC50 [1] | remaining activity at 1 µM [2] [%] | remaining activity at 1 µM [2, 3] [%]
1 | CC(C)(C)c1ccc(O)c(/N=C/C=C/c2cccc([N+](=O)[O-])c2)c1 [Compound 59] | 6.30 | 112 | 
2 | COc1cc(N/C=C2/C(=O)NC(=S)N(c3cccc(C)c3)C2=O)cc(OC)c1 [Compound 16] | 6.00 |  | 86
3 | Oc1c(Br)cc(Br)cc1/C=N/c1cccc2nsnc12 [Compound 112] | 6.15 |  | 113
4 | COc1ccc(N2C(=O)NC(=O)/C(=C\C=C\c3ccccc3)C2=O)cc1 [Compound 8] | 6.30 | 78 | 
5 | COc1ccccc1N1C(=O)NC(=O)/C(=C\C=C\c2ccccc2)C1=O [Compound 10] | 6.00 |  | 116
6 | COc1ccc(CNc2cccc(N(C)C)c2)cc1 [Compound 106] | 6.05 |  | 80
7 | O=c1oc2cc(O)ccc2cc1-c1csc(-c2ccc(Cl)cc2)n1 [Compound 40] | 6.00 |  | 159
8 | Cc1cc(I)ccc1NCn1nnc2ccccc21 [Compound 105] | 6.10 |  | 102
9 | O=C1C=CC(=O)N1c1ccc(OC(F)(F)C(F)F)c(N2C(=O)C=CC2=O)c1 [Compound 20] | 6.05 | 132 | 
10 | Cc1ccc2nsnc2c1/N=C/c1c(O)ccc2ccccc12 [Compound 53] | 6.30 | 125 | 
11 | O=C1NC(=O)N(c2ccc(Br)cc2)C(=O)/C1=C/c1ccc(O)cc1 [Compound 5] | 6.52 |  | 61
12 | COc1ccc(N2C(=O)NC(=O)/C(=C\c3ccc(Cl)cc3)C2=O)cc1 [Compound 7] | 6.00 |  | 101
13 | Oc1c(Br)cc(Br)cc1/C=N/c1ccc(Br)cn1 [Compound 61] | 6.15 |  | 131
14 | O=c1/c(=C/c2cccc([N+](=O)[O-])c2O)sc2nc3ccccc3n12 [Compound 51] | 6.15 |  | 80
15 | O=C1C=CC(=O)N1c1ccccc1Cl [Compound 18] | 6.15 | 101 | 
16 | O=C1NC(=S)N(c2ccccc2)C(=O)/C1=C\c1c(Cl)cccc1Cl [Compound 6] | 6.10 |  | 129
17 | O=C1CC(NNc2ccccc2)C(=O)N1c1cccc(Cl)c1 (centres unmarked) [Compound 22] | 6.05 |  | 102

Row | SMILES | pIC50 [1] | remaining activity at 1 µM [2] [%] | remaining activity at 1 µM [2, 3] [%]
18 | Oc1c(Br)cc(Cl)cc1/C=N/c1ccccc1Br [Compound 58] | 6.10 |  | 102
19 | Oc1c(Cl)cc(Cl)cc1/C=N/c1ccc(-c2nc3ccccc3[nH]2)cc1 [Compound 63] | 6.22 |  | 102
20 | O=c1/c(=C/c2ccc(N3CCOCC3)cc2)sc2nc3ccccc3n12 [Compound 32] | 6.30 | 141 | 
21 | O=[N+]([O-])c1ccc2c(c1)Cc1cc(/N=C/c3ccc(Br)cc3)ccc1-2 [Compound 67] | 6.00 |  | 104
22 | Cc1ccc(/C=N/c2ccc(C(N)=O)cc2)o1 [Compound 73] | 5.82 |  | 96
23 | COc1cc(/C=C2\SC(=O)NC2=O)ccc1OCc1ccc(Cl)cc1Cl [Compound 34] | 6.00 |  | 123
24 | COc1cc(C=C2C(=O)N(C)C(=S)N(C)C2=O)ccc1O [Compound 9] | 5.00 |  | 103
25 | COc1ccc(NC(=O)c2cc3cccc(N)c3cc2O)cc1 [Compound 114] | 6.52 | 85 | 
26 | Oc1ccc(/N=C/c2cccs2)cc1-c1nc2ccccc2s1 [Compound 71] | 6.10 |  | 78
27 | N/N=C\c1ccc(-c2cccs2)s1 [Compound 37] | 6.00 |  | 107
28 | CCCCOc1ccc(NC(=S)N2CCn3c4c(c(=O)c5cc(C)ccc53)CCC42)cc1 (centres unmarked) [Compound 81] | 7.00 | 73 | 
29 | Cc1cc(/N=C/c2c(O)ccc3ccccc23)no1 [Compound 111] | 6.00 |  | 72
30 | O=C1/C(=C\c2cccc([N+](=O)[O-])c2)Sc2ccccc21 [Compound 52] | 5.89 |  | 107
31 | O=C(O)c1ccc(-c2ccc(/C=c3\sc4nc5ccccc5n4c3=O)o2)cc1 [Compound 28] | 6.15 | 90 | 
32 | O=C1C=CC(=O)N1c1ccc(Cl)cc1 [Compound 19] | 6.15 | 100 | 
33 | O=c1nc(-c2ccc(Br)cc2)cc(-c2ccc([N+](=O)[O-])cc2)[nH]1 [Compound 84] | 6.52 | 102 | 
34 | O=C1N=C(c2ccccc2)S/C1=C/c1ccc2ccccc2c1 [Compound 41] | 6.00 |  | 106
